We go through 1 substance from paper PMC12808100, “The non-catalytic DNA polymerase ε subunit is an NPF motif recognition protein” (Nature Communications, 2025).

The target of experiment [1] is His6-avi-MBP-tagged POLE2. Kind of experiment: Single-point nHU-MS with recombinant His6-avi-MBP-POLE2 bait, Jurkat extract. In kind it is binding, human. The settings on record: significant apparent affinity of endogenous prey protein for POLE2 bait; single-point nHU-MS; Figure S11. The source says:
So far, our study only focused on a few hand-picked NPF motifs and studied them as short synthetic peptides. However, many other proteins may be present in the proteome that could bind to POLE2 and their putative NPF motifs are embedded in their natural structures that can greatly affect their binding properties. To investigate interactions between POLE2 and intact, full length proteins proteome-wide, we used nHU-MS experiments with recombinant His6-avi-MBP-tagged POLE2 as bait and purified His6-avi-MBP as a control. Even though we are aware that this recombinant POLE2 may bind to NPF motifs with a somewhat altered affinity, we assumed that this would affect all NPF motif-mediated interactions equally, allowing an unbiased affinity ranking of all identified partners. Single point nHU measurements were performed at 26 μM POLE2 concentration and the recovered supernatant was measured by label free proteomic MS measurements (Fig. 3A, Supplementary Figs. 8A, 9, Supplementary Data 1).
Single-point nHU experiments with protein baits were carried out nearly identically with two key modifications. First, the resin saturation step was carried out by mixing 50 μl streptavidin resin with 0.5−1 ml 50 μM biotinylated protein solution and the mixture was incubated for 1.5 h at 4 °C with constant agitation. Second, instead of using estimated bait concentrations, we measured it experimentally. An extra aliquot of resin stock was prepared alongside the nHU samples that were identically processed that were used to eluate the immobilized proteins under harsh conditions, in order to experimentally quantify the Cbait by using densitometry of Coomassie stained SDS-PAGE that included a protein calibration series. For this, 50 μl bait-saturated resin aliquots were mixed with 200 μl 4x Laemmli Sample Buffer (120 mM Tris-HCl pH 7, 8% SDS, 100 mM DTT, 32% glycerol, 0.004% bromphenol blue, 1% β-mercaptoethanol), instead of cell extract. After 15 min incubation at 95 °C, these samples were analyzed by SDS-PAGE using protein calibration standard, made from recombinant MBP. Densitometry was carried out after Coomassie staining on raw Tif images by using Fiji ImageJ 1.53c and experimental bait concentration were determined by adjusting for molecular weight differences between MBP and MBP-POLE2 constructs.
Samples were digested overnight at 37 °C.

In experiment [2] the test system is endogenous proteins of Jurkat extract. The experiment is described as follows: Single-point nHU-MS with biotinylated NPF motif peptide baits, proteome-wide. In kind it is binding, human. The settings on record: FigureS2 Volcano; prey WASHC3. From the text:
To identify the partners of NPF motifs, we used the native holdup (nHU) assay that was recently developed by our team (Fig. 1B). The holdup approach has been extensively used to determine equilibrium dissociation constants of transient interactions mediated by PDZ and SH3 domains, 14-3-3, and human papilloma virus E6 proteins, and even nucleic acid-protein interactions[7],[30]–[35]. In the nHU experiments, a purified bait molecule, or a control compound, is immobilized on a resin at high concentration (typically 10 μM, or higher) and these resin stocks are subsequently mixed with dilute cell extracts. […] This liquid phase contains the unbound prey molecules at near binding equilibrium that can be quantified using selective and quantitative analytical approaches, such as mass spectrometry. Therefore, proteins that interact with the bait molecule will appear to be depleted in the solvent phase and by measuring its relative concentration compared to the control nHU experiment, the degree of binding (θ) can be determined that can be converted to apparent steady-state dissociation constants, according to:1 θ=1−Ifree/Itot=Cbait/Cbait+Kapp where Itot and Ifree are the measured total and bait-depleted equilibrium mass spectrometry total ion intensities of prey proteins, Cbait is the bait molecule concentration and Kapp is the apparent dissociation constant. […]

The next experiment addresses T1, EHD4 (Homo sapiens, UniProt Q9H223).
T1 sequence (Q9H223 1-541): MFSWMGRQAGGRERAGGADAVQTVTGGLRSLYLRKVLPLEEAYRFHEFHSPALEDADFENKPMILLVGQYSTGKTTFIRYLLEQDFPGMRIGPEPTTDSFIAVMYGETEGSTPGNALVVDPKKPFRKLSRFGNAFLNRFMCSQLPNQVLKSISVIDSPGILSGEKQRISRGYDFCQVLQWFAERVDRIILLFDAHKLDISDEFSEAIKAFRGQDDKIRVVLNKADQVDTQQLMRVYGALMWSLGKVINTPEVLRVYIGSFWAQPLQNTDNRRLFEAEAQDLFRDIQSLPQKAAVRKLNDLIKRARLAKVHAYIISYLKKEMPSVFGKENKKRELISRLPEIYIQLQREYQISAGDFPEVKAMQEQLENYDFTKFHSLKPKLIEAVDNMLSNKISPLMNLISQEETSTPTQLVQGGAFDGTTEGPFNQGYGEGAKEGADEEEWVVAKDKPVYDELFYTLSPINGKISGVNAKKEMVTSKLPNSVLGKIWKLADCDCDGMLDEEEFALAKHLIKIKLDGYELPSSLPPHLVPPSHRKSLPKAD
Kind of experiment: nHU-MS peptide bait, prey EHD4. As to conditions: FigureS2 Volcano; prey EHD4.

For a further experiment, the target named is T2, GYPC (Homo sapiens, UniProt P04921).
T2 sequence (P04921 1-128): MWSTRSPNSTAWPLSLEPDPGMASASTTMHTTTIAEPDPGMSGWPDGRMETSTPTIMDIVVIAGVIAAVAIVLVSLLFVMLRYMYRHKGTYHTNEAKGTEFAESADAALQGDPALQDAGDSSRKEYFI
Kind of experiment: nHU-MS peptide bait, prey GYPC. The settings on record: FigureS2 Volcano; prey GYPC.

For another experiment, the target named is T3, UBE2N (Homo sapiens, UniProt P61088).
T3 sequence (P61088 1-152): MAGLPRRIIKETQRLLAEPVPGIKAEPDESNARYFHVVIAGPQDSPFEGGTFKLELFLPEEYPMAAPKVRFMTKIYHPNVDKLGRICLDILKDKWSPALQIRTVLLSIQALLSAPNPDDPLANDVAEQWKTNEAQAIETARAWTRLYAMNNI
The experiment is described as follows: nHU-MS peptide bait, prey UBE2N. As to conditions: FigureS2 Volcano; prey UBE2N.

For NSVD [WDHD1], in experiment [1], the pKapp_sign worked out at 5.025. The log2FC in experiment [2] is reported as -0.6642; at EHD4, -0.6115; at GYPC it was -0.6216; at UBE2N, -0.5674. In addition, the entries for the “-log10P” value on EHD4, at GYPC and on UBE2N were 4.524, 4.7052 and 4.615, respectively.
